pEC50: −log10 of the molar value. Where two headings read alike, the source gives them in different places.
Assays:
[1] = patients injected; cited from earlier work
[2] = system: Trypanosoma brucei Lister 427 strain bloodstream form; test: Assay for proliferation of kinetoplastid parasite Trypanosoma brucei; assay type: cell-based; conditions: Lister 427 bloodstream form, 48 hours, read-out: T. brucei EC50
How it was run: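 Bloodstream-form T. brucei Lister 427 in HMI-9 medium was exposed to compound (DMSO vehicle) for 48 hours at 37° C, 5% CO2. Parasite growth was read as ATP by CellTiter-Glo luminescence, with EC50 calculated from percent inhibition.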

[3] = system: Trypanosoma cruzi amastigotes (Tulahuen strain) cultured in 3T3 fibroblast cells; test: Assay for proliferation of kinetoplastid parasite Trypanosoma cruzi; assay type: cell-based; conditions: 144 h, Tulahuen amastigotes in 3T3 fibroblast cells, 6 day incubation, read-out: T cruzi EC50
Description: Assay for Proliferation of Kinetoplastid Parasite Trypanosoma cruzi.
Compounds of the invention can be assayed to measure their capacity to inhibit proliferation of kinetoplastid parasite Trypanosoma cruzi. The screening procedure is for identifying compounds with inhibitor activity against Trypanosoma cruzi amastigotes cultured in 3T3 fibroblast cells. The assay is done using the mammalian stage (amastigotes) of T. cruzi that replicates in the intracellular space of host cells. The host cells are initially infected with the culture-derived trypomastigotes that rapidly invade and then divide as amastigotes. The protocol uses the Tulahuen strain of T. cruzi that has been engineered to express the E. coli beta-galactosidase gene (Lac-Z) (Antimicr. Agents Chemoth. 40:2592, 1996). This allows for a colorimetric readout by using the substrate CPRG and an absorbance plate reader.
3T3 fibroblast cells are re-suspended in RPMI-1640 medium without phenol red medium supplemented with 10% FBS (heat inactivated), 100 μg/ml penicillin, and 100 μg/ml streptomycin. Forty μL of suspension (1,000 cells) is dispensed into 384-well plates and incubated overnight at 37° C. temperature and in atmosphere containing 5% CO2. The following day, 100 nL of compounds of the invention in DMSO are added to plate wells containing 3T3 cells. At the same time control compounds (benznidazole and nifurtimox) and DMSO are added to plates to serve as the positive and negative controls, respectively. After that, 10 μL of media containing 10,000 T. cruzi trypomastigotes are added to each plate well and plates are placed back into incubators. After 6 day incubation, 10 μL of reagent solution (0.6 mM CPRG, 0.6% NP-40 in PBS) is added to plates and incubated at room temperature for 2 hours. Absorbance is then measured on SpectraMax Gemini […] to determine relative number of T. cruzi cells present in each plate well. The percentage inhibition of 50%, EC50, is calculated for each compound. […] Typically, the EC50 is 10 μM or less.

[4] = system: Leishmania donovani axenic amastigote parasites; test: Leishmania donovani axenic amastigote proliferation assay; assay type: cell-based; conditions: axenic amastigotes in vitro, read-out: L. donovani amastigotes EC50
How it was run: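 L. donovani axenic amastigotes (9600/well) in RPMI 1640 with 20% heat-inactivated FBS, folic acid, adenosine, glucose and 25 mM MES, pH 5.5, were incubated with compounds for 2 days at 37 °C, 5% CO2. Viability read by CellTiter-Glo luminescence; EC50 calculated.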

[5] = system: L. donovani HU3 strain in mouse peritoneal macrophages; test: Assay for proliferation of Leishmania parasites in mouse peritoneal macrophages; assay type: cell-based, Leishmania donovani; conditions: Leishmania donovani, Peritoneal macrophage
How it was run: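 BALB/c peritoneal macrophages infected 24 h with L. donovani HU3 amastigotes taken from spleens of mice infected 9–11 weeks, then treated with compound for 5 days at 37° C, 5% CO2. Parasite nuclei counted by SYBR Green imaging after fixation; EC50 from percentage inhibition.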

[6] = read-out: L. donavani Macrophage EC50

Row | SMILES | patients who developed reactive encephalopathy (convulsions, progressive coma, or psychotic reactions) [1] | reactive encephalopathy cases that result in death [1] | pEC50 [2] | pEC50 [3] | pEC50 [4] | pEC50 ([5]; 120 h, L. donovani in mouse peritoneal macrophages, 5 days culture, SybrGreen parasite nuclei count, read-out: EC50) | pEC50 [5, 6]
1 | Nc1nc(N)nc(Nc2ccc([As]3SCC(CO)S3)cc2)n1 (stereo not drawn) [Melarsoprol] | 3-10% | 10-70% |  |  |  |  | 
2 | CN(C(=O)OC(C)(C)C)c1ccc(-c2cnc3nc(-c4cc(NC(=O)N5CCCC5)ccc4Cl)[nH]c3c2)cc1 [Compound 308, tert-butyl N-[4-(2-{2-chloro-5-[(pyrrolidin-1-yl)carbonylamino]phenyl}-1H-imidazo[4,5-b]pyridin-6-yl)phenyl]-N-methylcarbamate] |  |  | 7.60 | 7.64 | 6.94 | ~7.10 | 7.07
3 | Cc1cnc2nc(-c3cc(NC(=O)N(C)C4CCCC4)ccc3Cl)[nH]c2c1 [Compound 231] |  |  | < 4.63 | < 4.70 | < 4.60 |  | 4.55
4 | CNC(=O)Nc1ccc(Cl)c(-c2nc3ncc(C)cc3[nH]2)c1 [Compound 238] |  |  | 5.04 | < 4.70 | < 4.60 |  | 4.53

From patent US9233961B2, “Compounds and compositions for the treatment of parasitic diseases” (Novartis AG, priority 2013, dated 2016)
